In the test the target is T1, PriA_Blon (Bifidobacterium longum, UniProt Q8G4S5).
T1 sequence (Q8G4S5 1-241): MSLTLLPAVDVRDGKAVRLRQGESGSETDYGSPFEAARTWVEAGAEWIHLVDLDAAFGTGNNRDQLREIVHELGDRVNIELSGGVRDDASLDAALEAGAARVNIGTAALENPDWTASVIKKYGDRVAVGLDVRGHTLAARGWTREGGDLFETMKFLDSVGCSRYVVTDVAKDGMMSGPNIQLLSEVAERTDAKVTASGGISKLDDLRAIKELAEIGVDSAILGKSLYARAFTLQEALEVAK
As to the kind of experiment: steady-state kinetics, PRA isomerase. Particulars: read-out: In vitro activity^a / PRA isomerase (TrpF) / K M μM. It is filed as biochemical.

The structures appear in SMILES notation.

For `O=C(O)c1ccccc1N[C@@H]1O[C@H](COP(=O)(O)O)[C@@H](O)[C@H]1O` [PRA, N’-(5′-phosphoribosyl) anthranilate], the Km turned out to be 6.1 ± 0.1 µM.

Values taken from article PMC4462073 (BMC Evolutionary Biology, 2015).
